Data from patent publication US20260102380A1, “Synthesis and Characterization of Cyclic Hydrocarbon Esters of Everolimus” (BIOTRONIK AG, priority 2022, published 2026).
“And” between values parts separate entries of the source, which are not always exact repeats. Equal values may be shown once. Read-outs that look alike come from different tables or passages of the source.

Assays:
[1] = Elution study on porcine coronary artery; conditions: for Percent of Drug Eluted Over Time: samples 1 and 2
Method: (§1) To examine the effects of certain formulations of the present invention on porcine coronary artery samples, the samples were each prepared as follows:
(§2) Elution Media Preparation: Normal saline was prepared by weighing 4.5 grams of sodium chloride into a 500 mL Pyrex® bottle. 495.5 grams HPLC water was added to the 500 ml bottle. The bottle was then capped and vigorously shaken. 25% ethanol/saline elution media was prepared by weighing 25.0 grams of ethanol (200 proof) into a 100 mL Pyrex® bottle. 75.0 grams of normal saline was added to the 100 ml bottle containing ethanol. The bottle was capped and vigorously shaken.
(§3) Elution Method: Porcine coronary arterial vessels were obtained and dissected from hearts obtained from the butcher shop. Coronary arteries were flash frozen with dry ice then stored at −80° C. When ready for testing, arteries were removed from the freezer and allowed to thaw at room temperature. Any fat and muscle tissue were carefully removed using scissors and tweezers. Vessels were rinsed several times with normal saline containing 0.05% sodium azide.
(§4) Vessels were then cut into 1 cm sections. 5 μL of formulation (approximately 125 μg of drug) was carefully added onto the outer part of the tissue using a 10 μL Hamilton® syringe. Ethanol was allowed to evaporate at room temperature for 15-20 minutes.
(§5) Tissue was then placed into a 7 mL glass vial. 2 mL elution media, previously warmed to 37° C., was added carefully to each vial using an Eppendorf® pipette. Each vial was capped and placed in a 37° C. incubator and gently shaken at 100 spm (strokes per minute).
(§6) At certain time points, elution media was removed and fresh 2 mL media (at 37° C.) was slowly added to the vial.
(§7) Drug formulations in ethanol were applied (approximately 125 μg) onto previously frozen “butcher shop” porcine coronary arterial vessel and allowed to dry after 15-20 minutes.

[2] = pig
Method: as §1, §2, §3, §4, §5, §6, §7

Row | Percent of Drug Eluted Over Time ([1]; 0.5 hours, approx. 125 μg drug on 1 cm vessel section, 25% ethanol/saline, 37° C.) | Percent of Drug Eluted Over Time ([1]; 1 hour, approx. 125 μg drug on 1 cm vessel section, 25% ethanol/saline, 37° C.) | Percent of Drug Eluted Over Time ([1]; 2 hours, approx. 125 μg drug on 1 cm vessel section, 25% ethanol/saline, 37° C.) | Percent of Drug Eluted Over Time ([1]; 3 hours, approx. 125 μg drug on 1 cm vessel section, 25% ethanol/saline, 37° C.) | Percent of Drug Eluted Over Time ([1]; 23 hours, approx. 125 μg drug on 1 cm vessel section, 25% ethanol/saline, 37° C.) | Percent of Drug Eluted Over Time ([1]; Extract (after extraction, following 23 hours of elution)) | Time within which most of the drug eluted off the tissue [2] [h] | Structure (SMILES) | Elution behavior from vessel tissue (in words) ([1]; porcine coronary arterial tissue, 25% ethanol/saline, 37° C.) | Elution behavior from vessel tissue (in words) [2]
1 | 77% and 71% | 86% and 76% | 87% and 79% | 88% and 80% | 89% and 80% | 89% and 81% | – | CO[C@H]1C[C@@H]2CC[C@@H](C)[C@@](O)(O2)C(=O)C(=O)N2CCCC[C@H]2C(=O)O[C@H]([C@H](C)C[C@@H]2CC[C@@H](OCCO)[C@H](OC)C2)CC(=O)[C@H](C)/C=C(\C)[C@@H](O)[C@@H](OC)C(=O)[C@H](C)C[C@H](C)/C=C/C=C/C=C/1C [Everolimus] | eluting significantly faster than CRC-023 | –
2 | – | – | – | – | – | – | ≤ 2 | CO[C@H]1C[C@@H]2CC[C@@H](C)[C@@](O)(O2)C(=O)C(=O)N2CCCC[C@H]2C(=O)O[C@H]([C@H](C)C[C@@H]2CC[C@@H](O)[C@H](OC)C2)CC(=O)[C@H](C)/C=C(\C)[C@@H](O)[C@@H](OC)C(=O)[C@H](C)C[C@H](C)/C=C/C=C/C=C/1C [Sirolimus] | – | eluting significantly faster than CRC-023
